From patent US20140113877A1, “NOVEL 3,4,4A,10B-TETRAHYDRO-1H-THIOPYRANO[4,3-C] ISOQUINOLINE COMPOUNDS” (Takeda GmbH, priority 2011, published 2014)

Assays:
PDE4B1 = target: T1, PDE4B1 (Homo sapiens, UniProt Q07343); assay: Inhibition of PDE4B1 activity (SPA, [3H]cAMP); assay type: biochemical; conditions: recombinant PDE4B1, 0.5 μM cAMP; binned: below 8 / between 8 and 9; read-out: PDE4B1 inhibitory values measured as −logIC50 (converted)
T1 construct: made in house; host or cells: SF21 insect cells (baculovirus; virus prepared in SF9 cells)
T1 sequence (Q07343 whole entry): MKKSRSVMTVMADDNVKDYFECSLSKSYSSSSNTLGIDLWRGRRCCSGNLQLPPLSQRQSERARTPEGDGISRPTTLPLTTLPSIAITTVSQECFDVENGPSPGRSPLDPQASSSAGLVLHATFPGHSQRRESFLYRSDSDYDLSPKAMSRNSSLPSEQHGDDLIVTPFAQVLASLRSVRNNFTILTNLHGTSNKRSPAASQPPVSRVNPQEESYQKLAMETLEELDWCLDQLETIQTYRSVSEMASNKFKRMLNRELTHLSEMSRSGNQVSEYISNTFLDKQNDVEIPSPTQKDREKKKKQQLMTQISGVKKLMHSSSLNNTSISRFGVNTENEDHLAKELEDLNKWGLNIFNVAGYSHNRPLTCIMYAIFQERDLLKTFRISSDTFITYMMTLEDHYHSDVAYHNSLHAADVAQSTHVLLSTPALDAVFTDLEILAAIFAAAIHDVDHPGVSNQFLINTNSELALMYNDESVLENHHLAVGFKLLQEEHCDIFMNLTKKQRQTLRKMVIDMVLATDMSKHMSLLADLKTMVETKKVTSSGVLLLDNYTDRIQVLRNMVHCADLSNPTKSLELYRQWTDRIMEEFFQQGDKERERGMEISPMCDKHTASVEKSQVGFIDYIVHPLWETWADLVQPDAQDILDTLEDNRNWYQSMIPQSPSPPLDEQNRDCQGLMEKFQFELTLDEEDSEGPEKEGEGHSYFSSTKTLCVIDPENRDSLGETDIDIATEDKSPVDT
Description: The PDE4B1 (GB no. L20966) was a gift of Prof. M. Conti (Stanford University, USA). It was amplified from the original plasmid (pCMV5) via PCR with primers Rb18 (5′-[…]-3′) and Rb10 (5′-[…]-3′) and cloned into the pCR-Bac vector (Invitrogen, Groningen, NL).
The recombinant baculovirus was prepared by means of homologous recombination in SF9 insect cells. The expression plasmids were cotransfected with Baculo-Gold DNA (Pharmingen, Hamburg) using a standard protocol (Pharmingen, Hamburg). Wt virus-free recombinant virus supernatants were selected using plaque assay methods. After that, high-titre virus supernatants were prepared by amplifying 3 times. PDE4B1 was expressed in SF21 cells by infecting 2×10^6 cells/ml with an MOI (multiplicity of infection) between 1 and 10 in the serum-free SF900 medium (GIBCO Life Technologies, Karlsruhe, Germany). The cells were cultured at 28° C. for 48-72 hours, after which they were pelleted for 5-10 min at 1000×g and 4° C.
The SF21 insect cells were resuspended, at a concentration of approx. 10^7 cells/ml, in ice-cold (4° C.) homogenization buffer (20 mM Tris, pH 8.2, containing the following additions: 140 mM NaCl, 3.8 mM KCl, 1 mM EGTA, 1 mM MgCl2, 10 mM β-mercaptoethanol, 2 mM benzamidine, 0.4 mM Pefablock, 10 μM leupeptin, 10 μM pepstatin A, 5 μM trypsin inhibitor) and disrupted by ultrasonication. The homogenate was then centrifuged for 10 min at 1000×g and the supernatant was stored at −80° C. until subsequent use (see below). The protein content was determined by the Bradford method (BioRad, Munich) using BSA (Bovine serum albumin) as the standard.
PDE4B1 activities were measured in a 96-well platform using SPA (scintillation proximity assay) yttrium silicate beads (RPNQ1050 from GE Healthcare). In a first step the PDE activity operated hydrolysis of either [^3H] cAMP (substrate) into [^3H] 5′AMP. In a second step substrate and product were distinguished following addition of SPA yttrium silicate beads. Indeed, in the presence of zinc sulphate the linear [^3H] […] Close proximity of bound [^3H] […] The test volume was 100 μl and finally contained 20 mM Tris buffer (pH 7.4), 0.1 mg/ml of BSA, 5 mM Mg^2+, 0.5 μM cAMP (including about 50,000 cpm of [3H]cAMP) as substrate, 1 μl of the respective substance dilution in DMSO and sufficient recombinant PDE (1000×g supernatant, see above) to ensure that 10-20% of the cAMP was converted under the said experimental conditions. […] After a preincubation of 5 min at 37° C., the reaction was commenced by adding the substrate (cAMP) and the assays were incubated for a further 15 min. Reactions were terminated by adding SPA beads (50 μl). In agreement with the manufacturer's instructions, the SPA beads had previously been resuspended in water, but were then diluted 1:3 (v/v) in water. This diluted solution further contained 3 mM IBMX (isobutylmethylxanthine) to ensure a complete block of PDE activity. Once the beads were sedimented (>30 min), the MTP's (microtiter plate) were analyzed in commercially available luminescence detection devices. The corresponding IC50 values of the compounds for inhibition of PDE4B1 activity were determined from the concentration-effect curves by means of non-linear regression.
For the following compounds PDE4B1 inhibitory values [measured as −logIC50 (mol/l)] below 8 and between 8 and 9 have been determined. The numbers of the compounds correspond to the numbers of the examples.

human PDE5 = target: T2, human PDE5 (Homo sapiens, UniProt O76074); assay: Inhibition of PDE5 activity (SPA, [3H]cGMP, platelet lysate); assay type: biochemical; conditions: 0.5 μM cGMP, binned: below 8 / between 8 and 9, read-out: PDE5 inhibitory values measured as −logIC50 (converted)
T2 construct: from tissue; host or cells: human platelets from fresh donor blood (platelet lysate)
Description: As a source for human PDE5, platelets were used. For that purpose, 150 ml fresh blood from human donors anticoagulated with citrate [final concentration 0.3% (w/v)] was centrifuged at 200 g for 10 min to obtain the so-called platelet-rich-plasma (PRP) as a supernatant. 1/10 volume of ACD solution (85 mM Na3-citrate, 111 mM D-glucose, 71 mM citric acid, pH 4.4) was added to 9/10 volume of PRP. After centrifugation (1,400 g, 10 min) the cell pellet was resuspended in 3 ml homogenization buffer (NaCl 140 mM, KCl 3.8 mM, EGTA (ethylene glycol tetraacetic acid) 1 mM, MgCl2 1 mM, Tris-HCl 20 mM, beta-mercaptoethanol 1 mM, pH 8.2) plus protease-inhibitor mix resulting in final concentrations of 0.5 mM Pefablock (Roche), 10 μM Leupeptin, 5 μM Trypsine inhibitor, 2 mM Benzamidin and 10 μM Pepstatin A. The suspension was sonicated and thereafter centrifuged for 15 min at 10,000 g. The resulting supernatant (platelet lysate) was used for enzymatic assays.
PDE5 activities were measured in a 96-well platform using SPA (scintillation proximity assay) yttrium silicate beads (RPNQ1050 from GE Healthcare). In a first step the PDE activity operated hydrolysis of either [^3H] cGMP (substrate) into [^3H] 5′GMP. In a second step substrate and product were distinguished following addition of SPA yttrium silicate beads. Indeed, in the presence of zinc sulphate the linear [^3H] […] Close proximity of bound [^3H] […] The test volume was 100 μl and contained 20 mM Tris buffer (pH 7.4), 0.1 mg of BSA (bovine serum albumin)/ml, 5 mM Mg^2+, 1 μM motapizone (PDE3 Inhibitor), 10 nM PDE2 inhibitor 2-(3,4-dimethoxybenzyl)-7-[(1R,2R)-2-hydroxy-1-(2-phenylethyl)propyl]-5-methylimidazo[5,1-f][1,2,4]triazin-4(3H)-one, 0.5 μM cGMP (cyclic guanosine monophosphate) (including about 50,000 cpm of [3H]cGMP as a tracer) (substrate), 1 μl of the respective compound dilution in dimethylsulfoxide (DMSO) and sufficient PDE5-containing platelet lysat (10,000×g supernatant, see above) to ensure that 10-20% of the cGMP was converted under the said experimental conditions. […] After a preincubation of 5 min at 37° C., the reaction was commenced by adding the substrate (cGMP) and the assay was incubated for a further 15 min. The reaction was terminated by adding SPA beads (50 μl). In agreement with the manufacturer's instructions, the SPA beads had previously been resuspended in water, but were then diluted 1:3 (v/v) in water. This diluted solution also contained 3 mM 8-methoxymethyl-3-isobutyl-1-methylxanthine (IBMX) to ensure a complete block of PDE activity. Once the beads were sedimented (>30 min), the MTP's were analyzed in commercially available luminescence detection devices. The corresponding IC50 values of the compounds for inhibition of PDE activity were determined from the concentration-effect curves by means of non-linear regression.
For the following compounds PDE5 inhibitory values [measured as −logIC50 (mol/l)] below 8 and between 8 and 9 have been determined. The numbers of the compounds correspond to the numbers of the examples.

IC50 (PDE4B1) [µM] | IC50 (human PDE5) [µM] | SMILES
0.001 to 0.01 | 0.001 to 0.01 | CCOc1cc2c(cc1OC)C(c1ccc(C(=O)N3CCC(n4c(=O)c5sc(-c6cc(OC)ccc6OC)cc5n(Cc5ccc(OC)c(F)c5)c4=O)CC3)cc1)=N[C@@H]1CCSC[C@H]21 [Example 11, 6-(2,5-dimethoxyphenyl)-3-[1-({4-[(4aR,10bR)-9-ethoxy-8-methoxy-3,4,4a,10b-tetrahydro-1H-thiopyrano[4,3-c]isoquinolin-6-yl]phenyl}carbonyl)piperidin-4-yl]-1-(3-fluoro-4-methoxybenzyl)thieno[3,2-d]pyrimidine-2,4(1H,3H)-dione]
0.001 to 0.01 | 0.001 to 0.01 | CCOc1cc2c(cc1OC)C(c1ccc(C(=O)N3CCC(n4c(=O)c5sc(-c6ccccc6F)cc5n(Cc5ccc(OC)c(F)c5)c4=O)CC3)cc1)=N[C@@H]1CCSC[C@H]21 [Example 12, 3-[1-({4-[(4aR,10bR)-9-ethoxy-8-methoxy-3,4,4a,10b-tetrahydro-1H-thiopyrano[4,3-c]isoquinolin-6-yl]phenyl}carbonyl)piperidin-4-yl]-1-(3-fluoro-4-methoxybenzyl)-6-(2-fluorophenyl)thieno[3,2-d]pyrimidine-2,4(1H,3H)-dione]
> 0.01 | 0.001 to 0.01 | CCOc1cc2c(cc1OC)C(c1cccc(C(=O)N3CCC(n4c(=O)c5sc(-c6ccc7c(c6)OCO7)cc5n(Cc5ccc(OC)c(F)c5)c4=O)CC3)c1)=N[C@@H]1CCSC[C@H]21 [Example 20, 6-(1,3-benzodioxol-5-yl)-3-[1-({3-[(4aR,10bR)-9-ethoxy-8-methoxy-3,4,4a,10b-tetrahydro-1H-thiopyrano[4,3-c]isoquinolin-6-yl]phenyl}carbonyl)piperidin-4-yl]-1-(3-fluoro-4-methoxybenzyl)thieno[3,2-d]pyrimidine-2,4(1H,3H)-dione]
> 0.01 | 0.001 to 0.01 | CCOc1cc2c(cc1OC)C(c1cccc(C(=O)N3CCC(n4c(=O)c5sc(-c6ccccc6)cc5n(Cc5cc(F)c(OC)c(F)c5)c4=O)CC3)c1)=N[C@@H]1CCSC[C@H]21 [Example 21, 1-(3,5-difluoro-4-methoxybenzyl)-3-[1-({3-[(4aR,10bR)-9-ethoxy-8-methoxy-3,4,4a,10b-tetrahydro-1H-thiopyrano[4,3-c]isoquinolin-6-yl]phenyl}carbonyl)piperidin-4-yl]-6-phenylthieno[3,2-d]pyrimidine-2,4(1H,3H)-dione]
0.001 to 0.01 | 0.001 to 0.01 | CCOc1cc2c(cc1OC)C(c1ccc(C(=O)N3CCC(n4c(=O)c5sc(-c6ccc7c(c6)OCO7)cc5n(Cc5ccc(OC)c(F)c5)c4=O)CC3)cc1)=N[C@@H]1CCSC[C@H]21 [Example 8, 6-(1,3-benzodioxol-5-yl)-3-[1-({4-[(4aR,10bR)-9-ethoxy-8-methoxy-3,4,4a,10b-tetrahydro-1H-thiopyrano[4,3-c]isoquinolin-6-yl]phenyl}carbonyl)piperidin-4-yl]-1-(3-fluoro-4-methoxybenzyl)thieno[3,2-d]pyrimidine-2,4(1H,3H)-dione]
0.001 to 0.01 | 0.001 to 0.01 | CCOc1cc2c(cc1OC)C(c1ccc(C(=O)N3CCC(n4c(=O)c5sc(-c6cc(F)ccc6OC)cc5n(Cc5ccc(OC)c(F)c5)c4=O)CC3)cc1)=N[C@@H]1CCSC[C@H]21 [Example 10, 3-[1-({4-[(4aR,10bR)-9-ethoxy-8-methoxy-3,4,4a,10b-tetrahydro-1H-thiopyrano[4,3-c]isoquinolin-6-yl]phenyl}carbonyl)piperidin-4-yl]-1-(3-fluoro-4-methoxybenzyl)-6-(5-fluoro-2-methoxyphenyl)thieno[3,2-d]pyrimidine-2,4(1H,3H)-dione]
0.001 to 0.01 | 0.001 to 0.01 | CCOc1cc2c(cc1OC)C(c1ccc(C(=O)N3CCC(n4c(=O)c5sc(-c6ccc(F)cc6)cc5n(Cc5ccc(OC)c(F)c5)c4=O)CC3)cc1)=N[C@@H]1CCSC[C@H]21 [Example 13, 3-[1-({4-[(4aR,10bR)-9-ethoxy-8-methoxy-3,4,4a,10b-tetrahydro-1H-thiopyrano[4,3-c]isoquinolin-6-yl]phenyl}carbonyl)piperidin-4-yl]-1-(3-fluoro-4-methoxybenzyl)-6-(4-fluorophenyl)thieno[3,2-d]pyrimidine-2,4(1H,3H)-dione]
